IC50 data for 16 compounds are collected here from US11976083B2, “Inhibitors of peptidylarginine deiminases” (Gilead Sciences, Inc., priority 2020, dated 2024).

By IC50 is commonly meant the concentration at which inhibition is half-maximal.

SMILES strings stand for the structures.

In the test the target is T1, human PAD4 (Homo sapiens, UniProt Q9UM07).
T1 construct: human PAD4 (NM_012387), A2-P663, was PCR amplified; His-SUMO (N, cleaved yes); made in house; host or cells: E. coli BL21(DE3)
T1 sequence (Q9UM07 2-663): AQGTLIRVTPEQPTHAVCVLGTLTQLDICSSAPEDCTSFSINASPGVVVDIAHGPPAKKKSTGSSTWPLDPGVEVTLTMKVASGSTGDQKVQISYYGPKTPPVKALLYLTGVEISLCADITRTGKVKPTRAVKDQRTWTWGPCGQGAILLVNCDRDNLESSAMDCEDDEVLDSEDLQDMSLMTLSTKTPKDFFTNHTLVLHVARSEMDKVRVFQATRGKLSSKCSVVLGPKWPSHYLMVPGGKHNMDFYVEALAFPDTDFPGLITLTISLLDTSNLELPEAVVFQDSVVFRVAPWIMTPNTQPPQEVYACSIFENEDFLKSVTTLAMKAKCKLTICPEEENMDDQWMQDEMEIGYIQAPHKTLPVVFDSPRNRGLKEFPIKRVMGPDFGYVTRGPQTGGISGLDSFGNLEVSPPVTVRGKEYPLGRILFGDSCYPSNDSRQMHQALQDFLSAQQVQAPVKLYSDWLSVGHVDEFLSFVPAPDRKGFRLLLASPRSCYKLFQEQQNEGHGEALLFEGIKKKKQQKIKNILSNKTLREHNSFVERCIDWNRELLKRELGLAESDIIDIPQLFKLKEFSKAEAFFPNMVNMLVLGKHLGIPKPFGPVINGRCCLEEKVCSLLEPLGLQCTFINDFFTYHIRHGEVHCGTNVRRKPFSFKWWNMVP
As to the kind of experiment: In vitro PAD4 BAEE biochemical assay. Particulars: BAEE substrate 3 mM, 5 nM PAD4, 2 mM calcium chloride; geometric mean of multiple experiments. The method, boiled down:
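Recombinant human PAD4 (5 nM final) with 2 mM CaCl2 was preincubated with compound 30 min at 25 °C in MOPS buffer pH 7.6, then reacted with 3 mM BAEE for 2 h at 25 °C. After EDTA stop, released ammonia was detected by o-phthalaldehyde/DTT fluorescence (ex 405/em 535 nm); IC50 from four-parameter fit, geometric mean.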
Take `COc1cc(C(=O)N2C[C@H]3CC[C@@H]2[C@@H]3N)cc2nc(-c3cc4ccc5cc4n3CCCCCCC(C)(C)C(=O)N[C@@H]5C)n(C)c12` [Example 749, (11~{R})-17-[5-[(1~{R},4~ {R},7~{R})-7-amino-2-azabicyclo[2.2.1]heptane-2-carbonyl]-7-methoxy-1-methyl-benzimidazol-2-yl]-8,8,11-trimethyl-1,10-diazatricyclo[10.5.2.0^{15,18}] nonadeca-12(19), 13,15(18),16-tetraen-9-one]: the concentration for half-maximal inhibition (IC50) was found to be 17 nM.

Turning to `C[C@@H]1c2ccc3cc(-c4nc5cc(C(=O)N[C@H]6CNCC[C@@H]6F)c(F)cc5n4C4CC4)n(c3n2)CCCCCc2nc(Cl)ccc2C(=O)N1C` [Example 750, 2-[(2~{R})-8-chloro-2,3-dimethyl-4-oxo-3,9,16,22-tetrazatetracyclo[14.5.2.0^ {5,10}.0^{19,23}]tricosa-1(22),5(10),6,8,17,19(23),20-heptaen-17-yl]-1-cyclopropyl-6-fluoro-~{N}-[(3~{S},4~ {S})-4-fluoro-3-piperidyl] benzimidazole-5-carboxamide], the IC50 was 28 nM.

In the case of `C[C@H]1NC(=O)c2ccc(Cl)nc2CCCCCn2c(-c3nc4cc(C(=O)N[C@H]5CNCC[C@@H]5F)c(F)cc4n3C3CC3)cc3ccc1nc32` [Example 751, 2-[(2~{R})-8-chloro-2-methyl-4-oxo-3,9,16,22-tetrazatetracyclo[14.5.2.0^ {5,10}.0^{19,23}]tricosa-1(22),5(10),6,8,17,19(23),20-heptaen-17-yl]-1-cyclopropyl-6-fluoro-~{N}-[(3~{S}, 4~{S})-4-fluoro-3-piperidyl]benzimidazole-5-carboxamide], the IC50 worked out at 32 nM.

With `COc1cc(C(=O)N2[C@@H]3CC[C@@H](N)[C@H]2CC3)cc2nc(-c3cc4ccc5nc4n3CC(F)(F)CCC[C@@H]3C[C@H]3C(=O)N[C@@H]5C)n(C)c12` [Example 752, (2~{R},5~{R},7~{R})-14-[5-[(1~{R},2~{R},5~{R})-2-amino-8-azabicyclo[3.2.1]octane-8-carbonyl]-7-methoxy-1-methyl-benzimidazol-2-yl]-11,11-difluoro-2-methyl-3,13,19-triazatetracyclo[11.5.2.0^ {5,7}.0^{16,20}]icosa-1(19),14,16(20),17-tetraen-4-one], the concentration for half-maximal inhibition (IC50) was found to be 30 nM.

For `C[C@@H]1[C@H](N)CCCN1C(=O)c1ccc2c(nc(-c3cc4ccc5nc4n3CC/C=C/C[C@@H]3C[C@H]3C(=O)N[C@@H]5C)n2C2CC2)c1F` [Example 753, (2~{R},5~{R},7~{R},9~{E})-14-[5-[(2~{R},3~{R})-3-amino-2-methyl-piperidine-1-carbonyl]-1-cyclopropyl-4-fluoro-benzimidazol-2-yl]-2-methyl-3,13,19-triazatetracyclo [11.5.2.0^{5,7}.0^{16,20}] icosa-1(19),9,14,16(20), 17-pentaen-4-one], the 50% inhibitory concentration (IC50) came out at 113 nM.

For `C[C@H]1NC(=O)c2cc3ccccc3nc2CCCCCn2c(-c3nc4cc(C(=O)N5C[C@H](N)[C@@H]6CC[C@H]5C6)c(F)c(F)c4n3C3CC3)cc3ccc1nc32` [Example 754, (2~{R})-21-[5-[(1~{S},4~ {R},5~{R})-4-amino-2-azabicyclo[3.2.1]octane-2-carbonyl]-1-cyclopropyl-6,7-difluoro-benzimidazol-2-yl]-2-methyl-3,13,20,26-tetrazapentacyclo[18.5.2.0^ {5,14}.0^{7,12}.0^{23,27}] heptacosa-1(26),5(14),6,8, 10,12,21,23(27),24-nonaen-4-one], the IC50 stood at 59 nM.

As for `C[C@H]1NC(=O)[C@@H]2C[C@H]2CCCC(F)(F)Cn2c(-c3nc4cc(C(=O)N5C[C@H](N)[C@@H]6CC[C@H]5C6)cc(F)c4n3[C@H]3C[C@H]3C(F)F)cc3ccc1nc32` [Example 755, (2~{R},5~{R},7~{R})-14-[5-[(1~{S},4~{R},5~{R})-4-amino-2-azabicyclo[3.2.1]octane-2-carbonyl]-1-[(1~{S},2~{R})-2-(difluoromethyl)cyclopropyl]-7-fluoro-benzimidazol-2-yl]-11,11-difluoro-2-methyl-3,13,19-triazatetracyclo[11.5.2.0^ {5,7}.0^{16,20}]icosa-1(19),14,16(20),17-tetraen-4-one], the IC50 worked out at 29 nM.

On to `C[C@H]1NC(=O)[C@@H]2C[C@H]2CCCC(F)(F)Cn2c(-c3nc4cc(C(=O)N5C[C@H](N)[C@@H]6CC[C@H]5C6)cc(F)c4n3[C@@H]3C[C@@H]3C(F)F)cc3ccc1nc32` [Example 756, (2~{R},5~{R},7~{R})-14-[5-[(1~{S},4~{R},5~{R})-4-amino-2-azabicyclo[3.2.1]octane-2-carbonyl]-1-[(1~{R},2~{S})-2-(difluoromethyl)cyclopropyl]-7-fluoro-benzimidazol-2-yl]-11,11-difluoro-2-methyl-3,13,19-triazatetracyclo [11.5.2.0^{5,7}.0^{16,20}] icosa-1(19),14,16(20),17-tetraen-4-one], for which the IC50 was 31 nM.

Consider `COc1cc(C(=O)N2C[C@H](N)[C@@H]3CC[C@H]2C3)cc2nc(-c3cc4ccc5nc4n3CCCCC[C@H]3[C@H](C(=O)N[C@@H]5C)C3(F)F)n(C)c12` [Example 757, (2~{R},5~{R},7~{S})-14-[5-[(1~{S},4~{R},5~{R})-4-amino-2-azabicyclo[3.2.1]octane-2-carbonyl]-7-methoxy-1-methyl-benzimidazol-2-yl]-6,6-difluoro-2-methyl-3,13,19-triazatetracyclo[11.5.2.0^ {5,7}.0^{16,20}]icosa-1(19), 14,16(20),17-tetraen-4-one], for which the half-inhibitory concentration (IC50) stood at 5 nM.

With `COc1cc(C(=O)N2C[C@H](N)[C@@H]3CC[C@H]2C3)cc2nc(-c3cc4ccc5nc4n3CCCCC[C@]3(F)C[C@H]3C(=O)N[C@@H]5C)c(C3CC3)n12` [Example 758, (2~{R},5~{S},7~{S})-14-[7-[(1~{S},4~{R},5~{R})-4-amino-2-azabicyclo[3.2.1]octane-2-carbonyl]-3-cyclopropyl-5-methoxy-imidazo[1,2-a]pyridin-2-yl]-7-fluoro-2-methyl-3,13,19-triazatetracyclo [11.5.2.0^{5,7}.0^{16,20}] icosa-1(19),14,16(20),17-tetraen-4-one], the concentration for half-maximal inhibition (IC50) is 17 nM.

For `C[C@H]1NC(=O)[C@@H]2C[C@H]2CCCCCn2c(-c3nc4cc(C(=O)N5C[C@H](N)[C@@H]6CC[C@H]5C6)cc(OC(F)F)c4n3C3CC3)cc3ccc1nc32` [Example 759, (2~{R},5~{R},7~{R})-14-[5-[(1~{S},4~{R},5~{R})-4-amino-2-azabicyclo[3.2.1]octane-2-carbonyl]-1-cyclopropyl-7-(difluoromethoxy)benzimidazol-2-yl]-2-methyl-3,13,19-triazatetracyclo[11.5.2.0^ {5,7}.0^{16,20}]icosa-1(19), 14,16(20),17-tetraen-4-one], the IC50 was 17 nM.

As to `C[C@H]1NC(=O)c2ccc(Cl)nc2CCCCCn2c(-c3nc4cc(C(=O)N5C[C@H](N)[C@@H]6CC[C@H]5C6)cc(OC(F)F)c4n3C3CC3)cc3ccc1nc32` [Example 760, (2~{R})-17-[5-[(1~{S},4~{R}, 5~{R})-4-amino-2-azabicyclo [3.2.1]octane-2-carbonyl]-1-cyclopropyl-7-(difluoromethoxy)benzimidazol-2-yl]-8-chloro-2-methyl-3,9,16,22-tetrazatetracyclo [14.5.2.0^{5,10}.0^{19,23}] tricosa-1(22),5(10), 6,8,17,19(23),20-heptaen-4-one], the IC50 turned out to be 70 nM.

In the case of `COc1cc(C(=O)N2C[C@H](N)[C@@H]3CC[C@H]2C3)cc2nc(-c3cc4ccc5nc4n3CC(F)(F)CCCOC3(CC3)C(=O)N[C@@H]5C)n(C)c12` [Example 761, (11~{R})-17-[5-[(1~{S},4~{R}, 5~{R})-4-amino-2-azabicyclo [3.2.1]octane-2-carbonyl]-7-methoxy-1-methyl-benzimidazol-2-yl]-3,3-difluoro-11-methyl-spiro[7-oxa-1,10,19-triazatricyclo[10.5.2.0^ {15,18}]nonadeca-12(19), 13,15(18),16-tetraene-8,1′-cyclopropane]-9-one], the 50% inhibitory concentration (IC50) came to 67 nM.

In the case of `C[C@H]1NC(=O)[C@@H]2C[C@H]2CCCCCn2c(-c3nc4cc(C(=O)N5C[C@H](N)[C@@H]6CC[C@H]5C6)cc(OC(F)F)c4n3C)cc3ccc1nc32` [Example 763, (2~{R},5~{R},7~{R})-14-[5-[(1~{S},4~{R},5~{R})-4-amino-2-azabicyclo[3.2.1]octane-2-carbonyl]-7-(difluoromethoxy)-1-methyl-benzimidazol-2-yl]-2-methyl-3,13,19-triazatetracyclo[11.5.2.0^ {5,7}.0^{16,20}]icosa-1(19),14,16(20),17-tetraen-4-one], the half-inhibitory concentration (IC50) was 13 nM.

Consider `[2H]C1([2H])[C@H](N)[C@@H]2CC[C@@H](C2)N1C(=O)c1cc(F)c2c(c1)nc(-c1cc3ccc4nc3n1CCCCCc1nc(Cl)ccc1C(=O)N[C@@H]4C)n2C1CC1` [Example 764, (2~{R})-17-[5-[(1~{S},4~{R}, 5~{R})-4-amino-3,3-dideuterio-2-azabicyclo[3.2.1]octane-2-carbonyl]-1-cyclopropyl-7-fluoro-benzimidazol-2-yl]-8-chloro-2-methyl-3,9,16,22-tetrazatetracyclo[14.5.2.0^ {5,10).0^{19,23}]tricosa-1(22),5(10),6,8,17,19(23),20-heptaen-4-one], for which the IC50 was 22 nM.

Consider `[2H]C1([2H])[C@H](N)[C@@H]2CC[C@@H](C2)N1C(=O)c1cc(OC)c2c(c1)nc(-c1cc3ccc4nc3n1CC(F)(F)CCC[C@@H]1C[C@H]1C(=O)N[C@@H]4C)n2C` [Example 765, (2~{R},5~{R},7~{R})-14-[5-[(1~{S},4~{R},5~{R})-4-amino-3,3-dideuterio-2-azabicyclo[3.2.1]octane-2-carbonyl]-7-methoxy-1-methyl-benzimidazol-2-yl]-11,11-difluoro-2-methyl-3,13,19-triazatetracyclo[11.5.2.0^ {5,7}.0^{16,20}]icosa-1(19),14,16(20),17-tetraen-4-one], for which the half-maximal inhibitory concentration (IC50) is 16 nM.
